{
  "source": "patent US20090041839A1",
  "about": "“PHARMACEUTICAL COMPOSITIONS FOR THE TREATMENT OF PAIN” (priority 2007, published 2009)",
  "experiment": "Single escalating dose, age and food-effect pharmacokinetic study of T-62 soft gelatin capsules (Example 11)",
  "type": "in vivo",
  "settings": "human, plasma, po; for AUC(0-inf) / Cmax / AUC(0-t): arithmetic mean (SD); for AUC(0-t): read-out: AUC0-48; for Tmax: median",
  "excerpt": "A single-center, 3-part study: Parts A and B were randomized, double-blind, and placebo-controlled, and evaluated the safety, tolerability, and pharmacokinetics of single, escalating dose levels of a T-62 composition in soft gelatin capsules (oral dosage form 4) in young healthy subjects (Part A), and a single dose of a T-62 composition in soft gelatin capsules (oral dosage form 4) in elderly healthy subjects (Part B). In Part C, the effect of food on the bioavailability of a single dose of T-62 (oral dosage form 4) in young healthy subjects was evaluated in an open label, randomized, crossover fashion.\nPart A: The dose escalation phase of the study consisted of 6 cohorts of 12 young (18-45 years of age) healthy volunteers, a total of 72 subjects, randomly assigned in a 3:1 allocation to receive a single dose of either T-62 or placebo under fasted conditions. For all cohorts, subjects fasted for a minimum of 7 hours pre-dose to 4 hours post-dose. Subjects in the first cohort received a single dose of 100 mg of T-62 (n=9) or placebo (n=3). Subsequent cohorts of 12 new subjects received placebo or a higher dose level of T-62: Nine subjects in each cohort received a total of 2×100, 4×100, 8×100, 10×100 or 12×100 mg capsules of T-62; three subjects per dose level received placebo.\nPart B: A total of 15 elderly subjects (≧65 years of age) were randomly assigned in a 4:1 allocation to receive a single dose of 4×100 mg of T-62 (n=12) or placebo (n=3) under fasted conditions, i.e., subjects were fasted for a minimum of 7 hours pre-dose to 4 hours post-dose.\nPart C: A single cohort of 16 young (18-45 years of age) healthy volunteers were enrolled to evaluate the effect of food on the bioavailability and pharmacokinetics of a single-dose of 4×100 mg soft gelatin capsules of T-62. Subjects were randomly assigned in a 1:1 allocation to 1 of 2 treatment sequences (i.e., fed/fasted or fasted/fed) in a crossover fashion.\nEach subject in Parts A and B completed Screening, Baseline, Treatment, and Follow-Up Phases. The Screening Phase was conducted on an outpatient basis within 30 days, but no less than 3 days, prior to the start of the Baseline Phase. The Baseline Phase consisted of clinical research unit (CRU) admission and final qualification assessments. The Treatment Phase was comprised of dosing, post-treatment safety assessments, and blood collections. Subjects were discharged approximately 50 hours after study drug administration on Day 3. The Follow-Up Phase occurred 2 to 4 days after discharge from the CRU.\nEach subject in Part C completed a Screening Phase, Baseline and Treatment Phases for both crossover Dosing Periods I and II, and a single Follow-Up Phase. The Screening Phase was conducted on an outpatient basis within 30 days, but no less than 3 days, prior to the start of the Baseline Phase for Dosing Period I. Each Baseline Phase consisted of CRU admission and final/continuing qualification assessments. Each Treatment Phase was comprised of dosing, post-treatment safety assessments, and blood collections. T-62 was administered and post-treatment assessments were conducted on Day 1 of Dosing Period I. Subjects were discharged approximately 50 hours after study drug administration on Day 3. Following a 3-day washout, subjects crossed over and entered Dosing Period II. Subjects were re-admitted to the CRU one day before T-62 administration in Dosing Period II for Baseline assessments. T-62 was be administered and post-treatment assessments were conducted on Day 1 of Dosing Period II. Subjects were discharged approximately 50 hours after study drug administration on Day 3. The Follow-Up Phase occurred 2 to 4 days after discharge from the CRU following Dosing Period II. For each Dosing period, subjects randomized to receive T-62 under fed conditions were given a high fat breakfast on Day 1 about half an hour prior to dosing. Fasting subjects were not allowed to eat any food beginning a minimum of 7 hours pre-dose to 4 hours post-dose. […]",
  "key": {"[1]": {"settings": "100 mg, Part A, young healthy subjects, fasted, single oral dose 100 mg (oral dosage form 4), n = 9"}, "[2]": {"settings": "200 mg, Part A, young healthy subjects, fasted, single oral dose 2 × 100 mg (oral dosage form 4), n = 9"}, "[3]": {"settings": "400 mg, Part A, young healthy subjects, fasted, single oral dose 4 × 100 mg (oral dosage form 4), n = 9"}, "[4]": {"settings": "400 mg, Part B, elderly healthy subjects, fasted, single oral dose 4 × 100 mg (oral dosage form 4), n = 12"}, "[5]": {"settings": "400 mg, Part C, Fasted, young healthy subjects, single oral dose 4 × 100 mg (oral dosage form 4), n = 14"}, "[6]": {"settings": "400 mg, Part C, Fed, young healthy subjects, single oral dose 4 × 100 mg (oral dosage form 4), n = 16"}, "[7]": {"settings": "800 mg, Part A, young healthy subjects, fasted, single oral dose 8 × 100 mg (oral dosage form 4), n = 9"}, "[8]": {"settings": "1000 mg, Part A, young healthy subjects, fasted, single oral dose 10 × 100 mg (oral dosage form 4), n = 9"}, "[9]": {"settings": "1200 mg, Part A, young healthy subjects, fasted, single oral dose 12 × 100 mg (oral dosage form 4), n = 9"}},
  "note": "Where two headings read alike, the source gives them in different places.",
  "data": [
    {"smiles": "Nc1sc2c(c1C(=O)c1ccc(Cl)cc1)CCCC2", "note": "[T-62, (2-amino-4,5,6,7-tetrahydrobenzo[b]thiophen-3-yl)(4-chlorophenyl)-methanone]", "values": [
      {"measurement": "AUC(0-inf)", "setting": "[1]", "value": 106, "unit": "ng·h/mL"},
      {"measurement": "Cmax", "setting": "[1]", "value": 30, "unit": "ng/mL"},
      {"measurement": "AUC(0-t)", "setting": "[1]", "value": 92.2, "unit": "ng·h/mL"},
      {"measurement": "Tmax", "setting": "[1]", "value": 2, "unit": "h"},
      {"measurement": "AUC(0-inf)", "setting": "[2]", "value": 242, "unit": "ng·h/mL"},
      {"measurement": "Cmax", "setting": "[2]", "value": 47.7, "unit": "ng/mL"},
      {"measurement": "AUC(0-t)", "setting": "[2]", "value": 224, "unit": "ng·h/mL"},
      {"measurement": "Tmax", "setting": "[2]", "value": 1, "unit": "h"},
      {"measurement": "AUC(0-inf)", "setting": "[3]", "value": 557, "unit": "ng·h/mL"},
      {"measurement": "Cmax", "setting": "[3]", "value": 110, "unit": "ng/mL"},
      {"measurement": "AUC(0-t)", "setting": "[3]", "value": 525, "unit": "ng·h/mL"},
      {"measurement": "Tmax", "setting": "[3]", "value": 2, "unit": "h"},
      {"measurement": "AUC(0-inf)", "setting": "[4]", "value": 1290, "unit": "ng·h/mL"},
      {"measurement": "Cmax", "setting": "[4]", "value": 227, "unit": "ng/mL"},
      {"measurement": "AUC(0-t)", "setting": "[4]", "value": 1200, "unit": "ng·h/mL"},
      {"measurement": "Tmax", "setting": "[4]", "value": 1.8, "unit": "h"},
      {"measurement": "AUC(0-inf)", "setting": "[5]", "value": 576, "unit": "ng·h/mL"},
      {"measurement": "Cmax", "setting": "[5]", "value": 95.8, "unit": "ng/mL"},
      {"measurement": "AUC(0-t)", "setting": "[5]", "value": 533, "unit": "ng·h/mL"},
      {"measurement": "Tmax", "setting": "[5]", "value": 2.3, "unit": "h"},
      {"measurement": "AUC(0-inf)", "setting": "[6]", "value": 933, "unit": "ng·h/mL"},
      {"measurement": "Cmax", "setting": "[6]", "value": 154, "unit": "ng/mL"},
      {"measurement": "AUC(0-t)", "setting": "[6]", "value": 884, "unit": "ng·h/mL"},
      {"measurement": "Tmax", "setting": "[6]", "value": 3.5, "unit": "h"},
      {"measurement": "AUC(0-inf)", "setting": "[7]", "value": 1020, "unit": "ng·h/mL"},
      {"measurement": "Cmax", "setting": "[7]", "value": 165, "unit": "ng/mL"},
      {"measurement": "AUC(0-t)", "setting": "[7]", "value": 978, "unit": "ng·h/mL"},
      {"measurement": "Tmax", "setting": "[7]", "value": 3.5, "unit": "h"},
      {"measurement": "AUC(0-inf)", "setting": "[8]", "value": 1460, "unit": "ng·h/mL"},
      {"measurement": "Cmax", "setting": "[8]", "value": 213, "unit": "ng/mL"},
      {"measurement": "AUC(0-t)", "setting": "[8]", "value": 1370, "unit": "ng·h/mL"},
      {"measurement": "Tmax", "setting": "[8]", "value": 3, "unit": "h"},
      {"measurement": "AUC(0-inf)", "setting": "[9]", "value": 1200, "unit": "ng·h/mL"},
      {"measurement": "Cmax", "setting": "[9]", "value": 157, "unit": "ng/mL"},
      {"measurement": "AUC(0-t)", "setting": "[9]", "value": 1110, "unit": "ng·h/mL"},
      {"measurement": "Tmax", "setting": "[9]", "value": 3.5, "unit": "h"}
    ]}
  ]
}
